Measured values: patent US8552041B2, “Therapeutic approaches for treating alzheimer disease and related disorders through a modulation of cell stress response” (Pharnext, priority 2008, dated 2013)

Legend:
NGF-differentiated PC12 = test: MTT viability of NGF-differentiated PC12 cells after Abeta25-35 intoxication; format: cell-based, Rat; conditions: Abeta25-35 10 μM, 24 h; drug pre-incubated 1 h; FIG. 1
Experimental: PC12 (Pheochromocytoma Rat, ATCC ref: CRL-1721) cells from [NT] CRL-1721) were rapidly thawed in 37° C. water. The supernatant was immediately put in 9 ml of a “PC12 proliferation medium” containing Dulbecco's modified Eagle's medium DMEM-F12 (Pan Biotech ref: P04-41450) with 15% heat-inactivated horse serum (Invitrogen ref: 16050-130), 2.5% of fetal bovine serum (FBS; Invitrogen ref: 16000-036), 1% of Penicillin 10.000 U/ml and Streptomycin 10 mg/ml (PS; Pan Biotech ref: P06-07100) and 1% de L-glutamine 200 mM (Pan Biotech ref: P04-80100). Cells were centrifuged (800 rounds/min, 4° C. for 5 min) and added in 5 ml “PC12 proliferation medium”, viable cells were counted with a Malassez cell using the neutral red exclusion test (Sigma). Then the cells were seeded at 3·10^4 cells per cm^2 in “PC12 proliferation medium” in 75 cm^2 plastic flasks (Greiner Ref: 658175) precoated with poly-L-lysine (10 μg/ml, Sigma Ref: P2636). Medium was changed every other day. After 3 days of culture, when cells reached 80% of confluence, they were washed in HBSS without calcium and magnesium (Pan Biotech Ref: P06-33500) and incubated in trypsin EDTA, (0.05%, Pan Biotech Ref: P10-023100). The enzymatic reaction was stopped with PC12 proliferation medium added by 0.5 mg/ml of DNAse 1 grade 2 (Pan Biotech Ref: T60-37780100). […]

[1] = test system: rat primary cortical neuron culture; test: LDH release in Aβ25-35 intoxicated rat primary cortical neuron culture; format: cell-based; conditions: Aβ25-35 20 μM, 2 days; drug pre-incubated 1 h; FIG. 2
Experimental: Primary rat cortical neurons are cultured as described by Singer et al., 1999. Briefly pregnant female rats of 15 days gestation are killed by cervical dislocation (Rats Wistar; Janvier) and the foetuses removed from the uterus. The cortex are removed and placed in ice-cold medium of Leibovitz (L15; Invitrogen) containing 1% of Penicillin-Streptomycin (PS; Invitrogen) and 1% of bovine serum albumin (BSA; Sigma). Cortex are dissociated by trypsinisation for 20 min at 37° C. (Trypsin EDTA 1×; Invitrogen) diluted in PBS without calcium and magnesium. The reaction is stopped by the addition of Dulbecco's modified Eagle's medium (DMEM; Invitrogen) containing DNAase I grade II (0.1 mg/ml; Roche Diagnostic) and 10% of foetal calf serum (FCS; Invitrogen). Cells are then mechanically dissociated by 3 passages through a 10 ml pipette. Cells are then centrifuged at 180×g for 10 min at 10° C. The supernatant is discarded and the cells of pellet are re-suspended in a defined culture medium consisting of Neurobasal (Invitrogen) supplemented with B27 (2%; Invitrogen), L-glutamine (0.2 mM; Invitrogen), 1% of PS solution and 10 ng/ml of Brain-derived neurotrophic factor (BDNF, Pan Biotech). Viable cells are counted in a Neubauer cytometer using the trypan blue exclusion test. Cells are seeded at a density of 30 000 cells/well in 96 well-plates (wells are pre-coated with poly-L-lysine (10 ng/ml; Sigma)) and are cultured at 37° C. in a humidified air (95%)/CO2 (5%) atmosphere.
After 6 days of culture, cells are incubated with drugs (5 concentrations). After 1 hour, cells are intoxicated by 20 μM of β-amyloid (25-35; Sigma) in defined medium without BDNF but together with drugs. Cortical neurons are intoxicated for 2 days. BDNF (10 ng/ml) is used as a positive (neuroprotective) control.
After 2 days of culture, the supernatant is collected and analyzed with Cytotoxicity Detection Kit (LDH, Roche Applied Sciences). This colorimetric assay for the quantification of cell death is based on the measurement of lactate dehydrogenase (LDH) activity released from the cytosol of damaged cells into the supernatant. The optic density (DO) is assessed by spectrophotometer at 492 nm wavelength by a multiscan apparatus (Thermo, Ref Ascent). Results are expressed in percentage of cell viability, compared to the negative control (vehicle).
Results presented in FIGS. 1 and 2 are extracted from two independent cultures, 6 wells per condition. All values are expressed as mean±s.e.mean. A bilateral Student's t test analysis is performed on raw data. […]
Rat primary cortical neurons are incubated with drugs one hour before Aβ25-35 20 μM intoxication that lasts 2 days. Two days after this incubation, LDH release in the culture medium is quantified, reflecting the level of cell death.

[2] = test system: rat primary cortical neuron cells; test: LDH release in human Aβ1-42 intoxicated rat primary cortical neuron culture; format: cell-based; conditions: human Aβ1-42 10 μM, 24 h; 1 hr pre-treatment; FIG. 4
Experimental: Primary rat cortical neurons are cultured as described previously.
The control medium was prepared in the same conditions.
Cortical neurons were intoxicated for 24 hours. Three separate cultures were performed per condition, 6 wells per condition.
This colorimetric assay for the quantification of cell toxicity is based on the measurement of lactate dehydrogenase (LDH) activity released from the cytosol of dying cells into the supernatant.
All values are expressed as mean±s.e.mean of the 3 cultures (n=6 per condition).

[3] = test system: Human Brain Microvascular Endothelial Cells (HBMEC); test: Capillary network length in human Aβ1-42 intoxicated HBMEC on matrigel; format: cell-based; conditions: for Effect on intoxication, total length of capillary network in beta-amyloid intoxicated HBMEC cultures: Aβ1-42 2.5 μM, combination versus each drug alone at the same concentrations, FIGS. 5 and 6
Experimental: Human brain microvascular endothelial cerebral cells (HBMEC, ScienCell Ref: 1000, frozen at passage 10) were rapidly thawed in a waterbath at +37° C. The supernatant was immediately put in 9 ml Dulbecco's modified Eagle's medium (DMEM; Pan Biotech ref: P04-03600) containing 10% of foetal calf serum (FCS; GIBCO ref 10270-106). Cell suspension was centrifuged at 180×g for 10 min at +4° C. and the pellets were suspended in CSC serum-free medium (CSC serum free, Cell System, Ref: SF-4Z0-500-R, Batch 51407-4) with 1.6% of Serum free RocketFuel (Cell System, Ref: SF-4Z0-500-R, Batch 54102), 2% of Penicillin 10.000 U/ml and Streptomycin 10 mg/ml (PS; Pan Biotech ref: P06-07100 batch 133080808) and were seeded at the density of 20 000 cells per well in 96 well-plates (matrigel layer biocoat angiogenesis system, BD, Ref 354150, Batch A8662) in a final volume of 100 μl. On matrigel support, endothelial cerebral cells spontaneously started the process of capillary network morphogenesis (54).
Three separate cultures were performed per condition, 6 wells per condition.
Briefly, Aβ1-42 peptide (Bachem, ref: H1368 batch 1010533) was reconstituted in define culture medium at 20 μM (mother solution) and was slowly shacked at +37° C. for 3 days in. The control medium was prepared in the same conditions.
After 3 days, this human amyloid peptide was used on HBMEC at 2.5 μM diluted in control medium (optimal incubation time). The Aβ1-42 peptide was added 2 hours after HBMEC seeding on matrigel for 18 hours incubation.
One hour after HBMEC seeding on matrigel, test compounds and VEGF-165 were solved in culture medium (+0.1% DMSO) and then pre-incubated with HBMEC for 1 hour before the Aβ1-42 application (in a final volume per culture well of 100 μl).
VEGF-165, known to be a pro-angiogenic isoform of VEGF-A, was used for all experiments in this study as reference compound.
The following conditions were assessed: • Negative Control: medium alone+0.1% DMSO • Intoxication: amyloid-β1-42 (2.5 μM) for 18 h • Positive control: VEGF-165 (10 nM) (1 reference compound/culture) 1 hr before the Aβ1-42 (2.5 μM) addition for a 18 h incubation time. • Test compounds: Test compound I hr before the Aβ1-42 (2.5 μM) addition for a 18 h incubation time. Capillary Network Quantification
Per well, 2 pictures with 4× lens were taken using InCell Analyzer™ 1000 (GE Healthcare) in light transmission. All images were taken in the same conditions. Analysis of the angiogenesis networks was done using Developer software (GE Healthcare). The total length of capillary network was assessed.
All values are expressed as mean±s.e.mean of the 3 cultures (n=6 per condition). […] Indeed, the amyloid toxicity was taken as the 100% and the test compound effect was calculated as a % of this amyloid toxicity. […]

Molecule	Prevention of Aβ25-35 intoxication, LDH release in rat primary cortical neurons [1]	Effect on intoxication, total length of capillary network in beta-amyloid intoxicated HBMEC cultures [3]	further results
CCCNC(C)C(=O)Nc1ccccc1C (centres unmarked) [Prilocaln, Prilocaine]			Prevention of Abeta25-35 intoxication, viability of NGF-differentiated PC12 (MTT) (NGF-differentiated PC12): significantly prevented
Cc1oncc1C(=O)Nc1ccc(C(F)(F)F)cc1 [Leflunomide]	significantly prevented		
CN1CC(=O)N2[C@H](c3ccc4c(c3)OCO4)c3[nH]c4ccccc4c3C[C@@H]2C1=O [Tadalafil]			LDH release compared to amyloid intoxication [2]: −57%
CN(C/C=C/C#CC(C)(C)C)Cc1cccc2ccccc12 [Terbinafine]		no significant effect	
NS(=O)(=O)Cc1noc2ccccc12 [Zonisamide]	significantly prevented		
C[C@@H]1CC(=O)NN=C1c1ccc(NN=C(C#N)C#N)cc1 [Levosimendan]		no significant effect	
Cc1noc(NS(=O)(=O)c2ccc(N)cc2)c1C [Sulfisoxazole]	significantly prevented	no significant effect	Prevention of human Aβ1-42 injury in HBMEC (capillary network), single drug ([3]; human Aβ1-42 2.5 μM, 18 h, 1 hr pre-treatment, FIG. 3B): significantly prevented
BDNF: Brain-derived neurotrophic factor, positive (neuroprotective) control (protein, UniProt P23560 19-247, looked up) Neurotrophic factor BDNF …: APMKEANIRGQGGLAYPGVRTHGTLESVNGPKAGSRGLTSLADTFEHVIEELLDEDQKVRPNEENNKDADLYTSRVMLSSQVPLEPPLLFLLEEYKNYLDAANMSMRVRRHSDPARRGELSVCDSISEWVTAADKKTAVDMSGGTVTVLEKVPVSKGQLKQYFYETKCNPMGYTKEGCRGIDKRHWNSQCRTTQSYVRALTMDSKKRIGWRFIRIDTSCVCTLTIKRGR	efficiently prevented		LDH release compared to amyloid intoxication [2]: −95%
